Measurements taken from US11034650B2, “Compounds useful for treating a Mannheimia haemolytica or Histophilus somni infection” (Intervet Inc., priority 2016, dated 2021).
Values after ≈ are worked out from the molar mass of the structure shown.

How the values were obtained:
Assay type in all cases: cell-based
[1] = test system: Pasteurella multocida PM 10775 (080130003051, BRD field isolate); assay: MIC, broth-microdilution (CLSI VET01-A4), strain PM 10775; settings: Pasteurella multocida strain PM 10775, broth-microdilution; unit assumed
Method in brief: (§1)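 Broth microdilution per CLSI VET01-A4, using trays with a doubling dilution series of compound; results interpreted per CLSI VET01-S3. MIC taken as lowest concentration with no turbidity visible to the unaided eye.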

[2] = test system: Mannheimia haemolytica MH 6357 (M7/2, reference strain, cattle infection strain); assay: MIC, broth-microdilution (CLSI VET01-A4), strain MH 6357; settings: Mannheimia haemolytica strain MH 6357, broth-microdilution; unit assumed
Method in brief: as §1

[3] = test system: Mannheimia haemolytica MH 13093 (XB0472-6014.1, BRD field isolate); assay: MIC, broth-microdilution (CLSI VET01-A4), strain MH 13093; settings: Mannheimia haemolytica strain MH 13093, broth-microdilution; unit assumed
Method in brief: as §1

[4] = test system: Mannheimia haemolytica MH 6374 (ATCC 33396, reference strain); assay: MIC, broth-microdilution (CLSI VET01-A4), strain MH 6374; settings: Mannheimia haemolytica strain MH 6374, broth-microdilution; unit assumed
Method in brief: as §1

[5] = test system: Mannheimia haemolytica MH 12587 (1071, BRD field isolate, macrolide-resistance: erm+, E+); assay: MIC, broth-microdilution (CLSI VET01-A4), strain MH 12587; settings: Mannheimia haemolytica strain MH 12587, broth-microdilution; unit assumed
Method in brief: as §1

[6] = test system: Mannheimia haemolytica MH 13065 (XB0446-6003.9, BRD field isolate); assay: MIC, broth-microdilution (CLSI VET01-A4), strain MH 13065; settings: Mannheimia haemolytica strain MH 13065, broth-microdilution; unit assumed
Method in brief: as §1

[7] = test system: Mannheimia haemolytica MH 10720 (154, BRD field isolate); assay: MIC, broth-microdilution (CLSI VET01-A4), strain MH 10720; settings: Mannheimia haemolytica strain MH 10720, broth-microdilution; unit assumed
Method in brief: as §1

[8] = test system: Pasteurella multocida PM 6267 (P 2225 (L386), reference strain, mouse infection strain); assay: MIC, broth-microdilution (CLSI VET01-A4), strain PM 6267; settings: Pasteurella multocida strain PM 6267, broth-microdilution; unit assumed
Method in brief: as §1

[9] = test system: Pasteurella multocida PM 12080 (IV102277-0093, BRD field isolate); assay: MIC, broth-microdilution (CLSI VET01-A4), strain PM 12080; settings: Pasteurella multocida strain PM 12080, broth-microdilution; unit assumed
Method in brief: as §1

[10] = test system: Pasteurella multocida PM 6391 (ATCC 43137, reference strain); assay: MIC, broth-microdilution (CLSI VET01-A4), strain PM 6391; settings: Pasteurella multocida strain PM 6391, broth-microdilution; unit assumed
Method in brief: as §1

Structure (SMILES) | MIC PM 10775 [1] [mg/L] | MIC MH 6357 [2] [mg/L] | MIC MH 13093 [3] [mg/L] | MIC MH 6374 [4] [mg/L] | MIC MH 12587 [5] [mg/L] | MIC MH 13065 [6] [mg/L] | MIC MH 10720 [7] [mg/L] | MIC PM 6267 [8] [mg/L] | MIC PM 12080 [9] [mg/L] | MIC PM 6391 [10] [mg/L]
COCCCNCc1ccc(C#Cc2ccc(C(=O)N[C@H](C(=O)NO)C(C)C)cc2)cc1 [Compound 205] | ≤ 0.1 | 1.6 (≈ 3.66 µM) | 3.1 (≈ 7.09 µM) | 3.1 (≈ 7.09 µM) | 6.3 (≈ 14.4 µM) | 1.6 (≈ 3.66 µM) | 0.8 (≈ 1.83 µM) | 0.2 (≈ 0.457 µM) | 0.4 (≈ 0.914 µM) | 0.4 (≈ 0.914 µM)
CCCNCc1ccc(C#Cc2ccc(C(=O)N[C@H](C(=O)NO)C(C)C)cc2)cc1 [Compound 206] | ≤ 0.1 | 3.1 (≈ 7.61 µM) | 6.3 (≈ 15.5 µM) | 3.1 (≈ 7.61 µM) | 6.3 (≈ 15.5 µM) | 3.1 (≈ 7.61 µM) | 0.8 (≈ 1.96 µM) | ≤ 0.1 | 0.2 (≈ 0.491 µM) | 0.4 (≈ 0.982 µM)
CNCc1ccc(C#Cc2ccc(C(=O)N[C@H](C(=O)NO)C(C)C)cc2)cc1 [Compound 207] | ≤ 0.1 | 12.5 (≈ 32.9 µM) | 12.5 (≈ 32.9 µM) | 12.5 (≈ 32.9 µM) | 12.5 (≈ 32.9 µM) | 6.3 (≈ 16.6 µM) | 3.1 (≈ 8.17 µM) | 0.2 (≈ 0.527 µM) | 0.8 (≈ 2.11 µM) | 0.8 (≈ 2.11 µM)
CC(C)[C@H](NC(=O)c1ccc(C#Cc2ccc(CNC3CCCCC3)cc2)cc1)C(=O)NO [Compound 208] | ≤ 0.1 | 12.5 (≈ 27.9 µM) | 12.5 (≈ 27.9 µM) | 12.5 (≈ 27.9 µM) | 25 (≈ 55.9 µM) | 12.5 (≈ 27.9 µM) | 3.1 (≈ 6.93 µM) | 0.2 (≈ 0.447 µM) | 0.2 (≈ 0.447 µM) | 0.4 (≈ 0.894 µM)
CC(C)[C@H](NC(=O)c1ccc(C#Cc2ccc(CNC3CCCC3)cc2)cc1)C(=O)NO [Compound 209] | ≤ 0.1 | 3.1 (≈ 7.15 µM) | 12.5 (≈ 28.8 µM) | 6.3 (≈ 14.5 µM) | 12.5 (≈ 28.8 µM) | 6.3 (≈ 14.5 µM) | 1.6 (≈ 3.69 µM) | ≤ 0.1 | 0.2 (≈ 0.461 µM) | 0.4 (≈ 0.923 µM)
CC(C)[C@H](NC(=O)c1ccc(C#Cc2ccc(CNC3CCC3)cc2)cc1)C(=O)NO [Compound 210] | ≤ 0.1 | 1.6 (≈ 3.81 µM) | 3.1 (≈ 7.39 µM) | 3.1 (≈ 7.39 µM) | 6.3 (≈ 15 µM) | 1.6 (≈ 3.81 µM) | 0.8 (≈ 1.91 µM) | ≤ 0.1 | ≤ 0.1 | 0.2 (≈ 0.477 µM)
CC(C)[C@H](NC(=O)c1ccc(C#Cc2ccc(CN3CCN(C)CC3)cc2)cc1)C(=O)NO [Compound 211] | ≤ 0.1 | 3.1 (≈ 6.91 µM) | 6.3 (≈ 14 µM) | 12.5 (≈ 27.9 µM) | 12.5 (≈ 27.9 µM) | 6.3 (≈ 14 µM) | 1.6 (≈ 3.57 µM) | ≤ 0.1 | ≤ 0.1 | 0.2 (≈ 0.446 µM)
CC(C)[C@H](NC(=O)c1ccc(C#Cc2ccc(CN3CCCC3)cc2)cc1)C(=O)NO [Compound 212] | ≤ 0.1 | 3.1 (≈ 7.39 µM) | 12.5 (≈ 29.8 µM) | 6.3 (≈ 15 µM) | 12.5 (≈ 29.8 µM) | 3.1 (≈ 7.39 µM) | 0.8 (≈ 1.91 µM) | 0.2 (≈ 0.477 µM) | 0.2 (≈ 0.477 µM) | 0.4 (≈ 0.953 µM)
O=C(N[C@@H](CO)C(=O)NO)c1ccc(C#Cc2ccc(CNCc3nccs3)cc2)cc1 [Compound 213] | ≤ 0.1 | 1.6 (≈ 3.55 µM) | 3.1 (≈ 6.88 µM) | 1.6 (≈ 3.55 µM) | 3.1 (≈ 6.88 µM) | 1.6 (≈ 3.55 µM) | 0.8 (≈ 1.78 µM) | ≤ 0.1 | 0.2 (≈ 0.444 µM) | 0.4 (≈ 0.888 µM)
O=C(N[C@@H](CO)C(=O)NO)c1ccc(C#Cc2ccc(CNCc3ccnc(Cl)c3)cc2)cc1 [Compound 214] | ≤ 0.1 | 1.6 (≈ 3.34 µM) | 3.1 (≈ 6.47 µM) | 1.6 (≈ 3.34 µM) | 6.3 (≈ 13.2 µM) | 3.1 (≈ 6.47 µM) | 0.8 (≈ 1.67 µM) | 0.2 (≈ 0.418 µM) | 0.4 (≈ 0.835 µM) | 0.4 (≈ 0.835 µM)
O=C(N[C@@H](CO)C(=O)NO)c1ccc(C#Cc2ccc(CN3CCCOCC3)cc2)cc1 [Compound 215] | ≤ 0.1 | 3.1 (≈ 7.09 µM) | 6.3 (≈ 14.4 µM) | 3.1 (≈ 7.09 µM) | 6.3 (≈ 14.4 µM) | 3.1 (≈ 7.09 µM) | 0.8 (≈ 1.83 µM) | ≤ 0.1 | ≤ 0.1 | ≤ 0.1
